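1) Cells in 96-well plates. 2) Compound, 48 h, 5 concentrations. 3) Linear interpolation between surrounding doses. 4) Unreached endpoint = highest concentration. The concentration for 50% growth inhibition is given as GI50. The concentration for full growth arrest is given as TGI.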
Assays:
Experiment in all cases: NCI-60 cell line screen, 48 h
[1] = test system: NCI-H522 lung
[2] = test system: LOX IMVI melanoma
[3] = test system: OVCAR-5 ovarian
[4] = test system: MCF7 breast
[5] = test system: CCRF-CEM leukemia
[6] = test system: HCT-116 colon
[7] = test system: HCT-15 colon
[8] = test system: PC-3 prostate
[9] = test system: NCI/ADR-RES ovarian
[10] = test system: DU-145 prostate
[11] = test system: A549 NSCLC
[12] = test system: A498 renal
[13] = test system: NCI-H226 lung
[14] = test system: SK-MEL-2 melanoma
[15] = test system: ACHN renal
[16] = test system: SK-MEL-28 melanoma
[17] = test system: HOP-62 NSCLC
[18] = test system: CAKI-1 renal
[19] = test system: NCI-H23 lung
[20] = test system: NCI-H460 lung
[21] = test system: IGROV1 ovarian
[22] = test system: MALME-3M melanoma
[23] = test system: MDA-MB-231 breast
[24] = test system: MOLT-4 leukemia
[25] = test system: 786-0 renal
[26] = test system: SNB-19 CNS
[27] = test system: UACC-62 melanoma
[28] = test system: U251 CNS
[29] = test system: SK-OV-3 ovarian
[30] = test system: KM12 colon
[31] = test system: M14 melanoma
[32] = test system: SF-295 CNS
[33] = test system: SF-539 CNS
[34] = test system: K-562 leukemia
[35] = test system: SK-MEL-5 melanoma
[36] = test system: MDA-MB-435
[37] = test system: SW-620 colon
[38] = test system: SNB-75 CNS
[39] = test system: SR leukemia
[40] = test system: COLO 205 colon
[41] = test system: RXF 393 renal
[42] = test system: OVCAR-4 ovarian
[43] = test system: UACC-257 melanoma
[44] = test system: SN12C renal
[45] = test system: OVCAR-3 ovarian
[46] = test system: T-47D breast
[47] = test system: MDA-N
[48] = test system: HT29 colon
[49] = test system: EKVX NSCLC
[50] = test system: HL-60(TB) leukemia
[51] = test system: HCC-2998 colon
[52] = test system: SF-268 CNS
[53] = test system: UO-31 renal
[54] = test system: HS 578T breast
[55] = test system: RPMI-8226 leukemia
[56] = test system: TK-10 renal
[57] = test system: HOP-92 NSCLC
[58] = test system: BT-549 breast
[59] = test system: OVCAR-8 ovarian

CCCCCCCCCCCCCCCC(=O)OCC(O)C1OC(=O)C(O)=C1O (configuration not stated)
TGI [1]: > 100 µM | TGI [2]: 46.2 µM | TGI [3]: 95.4 µM | TGI [4]: 4.81 µM | TGI [5]: 47.5 µM | TGI [6]: 36.7 µM | TGI [7]: > 100 µM | TGI [8]: > 100 µM | TGI [9]: 79.8 µM | TGI [10]: > 100 µM | TGI [11]: 42.9 µM | TGI [12]: 77 µM | TGI [13]: 47.1 µM | TGI [14]: > 100 µM | TGI [15]: 98.7 µM | TGI [16]: 41.4 µM | TGI [17]: 60.3 µM | TGI [18]: 96.6 µM | TGI [19]: 96.3 µM | TGI [20]: > 100 µM | TGI [21]: 84.5 µM | TGI [22]: > 100 µM | TGI [23]: 54.2 µM | TGI [24]: > 100 µM | TGI [25]: 38.8 µM | TGI [26]: 91.4 µM | TGI [27]: 75 µM | TGI [28]: 61.7 µM | TGI [29]: > 100 µM | TGI [30]: 53 µM | TGI [31]: 36.2 µM | TGI [32]: 40.4 µM | TGI [33]: 53.2 µM | TGI [34]: 77.7 µM | TGI [35]: > 100 µM | TGI [36]: 42.4 µM | TGI [37]: > 100 µM | TGI [38]: 46 µM | TGI [39]: > 100 µM | TGI [40]: > 100 µM | TGI [41]: 86.8 µM | TGI [42]: > 100 µM | TGI [43]: > 100 µM | TGI [44]: 96.9 µM | TGI [45]: > 100 µM | TGI [46]: > 100 µM | TGI [47]: 94.6 µM | TGI [48]: 38.8 µM | TGI [49]: > 100 µM | TGI [50]: 65.9 µM | TGI [51]: > 100 µM | TGI [52]: 60.4 µM | TGI [53]: 59.9 µM

O=C(Nc1ccc(Br)cc1)Nc1n[nH]c2ccccc12
GI50 [1]: 55 µM | TGI [1]: > 100 µM | GI50 [2]: > 100 µM | TGI [2]: > 100 µM | GI50 [3]: > 100 µM | TGI [3]: > 100 µM | GI50 [4]: 42.1 µM | TGI [4]: > 100 µM | GI50 [5]: 6.8 µM | TGI [5]: > 100 µM | GI50 [6]: 33.8 µM | TGI [6]: > 100 µM | GI50 [7]: 17.3 µM | TGI [7]: > 100 µM | GI50 [8]: > 82.7 µM | TGI [8]: > 100 µM | GI50 [9]: > 100 µM | TGI [9]: > 100 µM | GI50 [10]: > 60.2 µM | TGI [10]: > 100 µM | GI50 [11]: > 62.7 µM | TGI [11]: > 100 µM | GI50 [12]: > 100 µM | TGI [12]: > 100 µM | GI50 [13]: > 91 µM | TGI [13]: > 100 µM | GI50 [54]: 46.8 µM | TGI [54]: > 100 µM | GI50 [14]: > 100 µM | TGI [14]: > 100 µM | TGI [55]: > 100 µM | GI50 [15]: 23.3 µM | TGI [15]: > 100 µM | GI50 [16]: > 100 µM | TGI [16]: > 100 µM | GI50 [17]: > 100 µM | TGI [17]: > 100 µM | GI50 [18]: > 100 µM | TGI [18]: > 100 µM | GI50 [19]: > 100 µM | TGI [19]: > 100 µM | GI50 [20]: 11.7 µM | TGI [20]: > 100 µM | TGI [56]: > 26.7 µM | GI50 [21]: 17.5 µM | TGI [21]: > 100 µM | GI50 [22]: > 19.7 µM | TGI [22]: > 100 µM | GI50 [23]: > 50.3 µM | TGI [23]: > 100 µM | GI50 [24]: 8.98 µM | TGI [24]: > 100 µM | GI50 [25]: > 100 µM | TGI [25]: > 100 µM | GI50 [26]: > 100 µM | TGI [26]: > 100 µM | GI50 [27]: > 100 µM | TGI [27]: > 100 µM | GI50 [28]: > 91.2 µM | TGI [28]: > 100 µM | GI50 [29]: > 33.7 µM | TGI [29]: > 100 µM | GI50 [57]: > 86.3 µM | TGI [57]: > 100 µM | GI50 [30]: > 76.4 µM | TGI [30]: > 100 µM | GI50 [31]: > 100 µM | TGI [31]: > 100 µM | GI50 [58]: > 100 µM | TGI [58]: > 100 µM | GI50 [32]: > 100 µM | TGI [32]: > 100 µM | GI50 [33]: > 70.9 µM | TGI [33]: > 100 µM | GI50 [34]: 59.1 µM | TGI [34]: > 100 µM | GI50 [35]: > 88.7 µM | TGI [35]: > 100 µM | GI50 [59]: 71.2 µM | TGI [59]: > 100 µM | GI50 [36]: > 100 µM | TGI [36]: > 100 µM | GI50 [37]: > 100 µM | TGI [37]: > 100 µM | GI50 [38]: 34.4 µM | TGI [38]: > 82.7 µM | GI50 [39]: 4.78 µM | TGI [39]: > 100 µM | GI50 [40]: > 100 µM | TGI [40]: > 100 µM | GI50 [41]: > 62.8 µM | TGI [41]: > 100 µM | GI50 [42]: 56.7 µM | TGI [42]: > 100 µM | GI50 [43]: > 100 µM | TGI [43]: > 100 µM | GI50 [44]: > 100 µM | TGI [44]: > 100 µM | GI50 [45]: > 100 µM | TGI [45]: > 100 µM | GI50 [46]: > 100 µM | TGI [46]: > 100 µM | GI50 [48]: > 100 µM | TGI [48]: > 100 µM | GI50 [49]: > 100 µM | TGI [49]: > 100 µM | GI50 [50]: 18.7 µM | TGI [50]: > 90 µM | GI50 [51]: > 100 µM | TGI [51]: > 100 µM | GI50 [52]: > 46 µM | TGI [52]: > 100 µM | GI50 [53]: 25.8 µM | TGI [53]: > 100 µM

Source: PubChem BioAssay (NCI)
